In US4271073A, “6-Substituted-9-(2-hydroxyethyl)-1,2,3,4-tetrahydro carbazol-1-one” (Cassella Aktiengesellschaft, priority 1979, dated 1981) one finds ED50 data, which are given here for three compounds.

A short description of this experiment: Antagonism Tetrabenazine (antidepressive action). As to conditions: species, route and unit inferred, read-out: ED50 Antagonism Dosage Tetrabenazine. Format: in vivo.
Regarding `Cc1ccc2c(c1)c1c3n2CCN=C3CCC1.Cl` [Example 1, 8-methyl-2,4,5,6-tetrahydro-1H-pyrazino[3,2,1-jk]carbazole-hydrochloride], the ED50 came to 4 mg/kg.

Consider `COc1ccc2c(c1)c1c3n2CCN=C3CCC1.Cl` [Example 2, 8-methoxy-2,4,5,6-tetrahydro-1H-pyrazino[3,2,1-jk]carbazole-hydrochloride], for which the ED50 was 2 mg/kg.

In the case of `Cc1ccc2c(c1)c1c3n2CCNC3CCC1.Cl` (stereo not drawn) [8-methyl-2,3,3a,4,5,6-hexahydro-1H-pyrazino[3,2,1-jk]carbazole-hydrochloride, reference compound], the ED50 worked out at 14 mg/kg.

Broadly, the ED50 is the dose at which the effect has come halfway, by size or by number of responders.
